Reference: article PMC5629628, “The development of activatable lytic peptides for targeting triple negative breast cancer” (Cell Death Discovery, 2017)

Experiments:
[1] = system: caspase-3/7 in MDA-MB-231 cells; assay: Caspase-3/7 activation analysis; assay type: cell-based, human; settings: MDA-MB-231, 4 h treatment; Uk14 5 μM, Ur11 10 μM, ABT-737 10 μM
Procedure: Cells (MDA-MB-231) were plated 10 000 per well on 96-well plates in medium containing 10% fetal bovine serum and incubated with serial dilution of peptides and ABT-737 for 4 h. Then caspase-3/7 activation was measured by addition of the caspase-Glo 3/7 chemiluminescence reagent in accordance with the manufacturer’s protocol (Promega, Madison, WI, USA).

MDA-MB-231 = assay: Cell viability with or without caspase inhibitor Z-VAD-FMK; assay type: cell-based, human; settings: MDA-MB-231, 24 h treatment, with or without Z-VAD-FMK
Procedure: 100 μl of 4×10^4/ml cell suspension (MDA-MB-231, MCF-7, HeLa, SK-OV-3) was placed in each well of the 96-well culture plate and allowed to grow in dulbecco's modified eagle medium or Leibovitz medium (L-15) supplemented with 10% fetal bovine serum overnight. The cells were incubated with serial dilution of compounds at 310 K in 5% fetal bovine serum containing media for 24 h supplied with 5% CO2. At the end of the compounds exposure, 20 μl of 3-(4,5-dimethyl-2-thiazolyl)-2,5-diphenyl-2-H-tetrazolium bromide reagent was added and incubated at 310 K for 4 h. The absorbance of formazan product was measured at 490 nm by a microplate reader (PerkinElmer, Waltham, MA, USA). Cells without peptide were treated as control. *P<0.05, **P<0.01, ***P<0.001 compared with vehicle-treated cells. In Z-VAD-FMK assays, *P<0.05, **P<0.01, ***P<0.001 compared with cells without treatment of Z-VAD-FMK.

For `CN(C)CC[C@H](CSc1ccccc1)Nc1ccc(S(=O)(=O)NC(=O)c2ccc(N3CCN(Cc4ccccc4-c4ccc(Cl)cc4)CC3)cc2)cc1[N+](=O)[O-]` [ABT-737, reference compound], the caspase-3/7 activation [1] was “observed” and the “effect of caspase inhibitor Z-VAD-FMK on cytotoxic effect” value (MDA-MB-231) was “did have an inhibitory effect”.
